According to patent US20210330611A1, “THERAPY FOR NEUROLOGICAL DISEASES/DISORDERS” (priority 2020, published 2021):
Like-named read-outs stand apart in the source and are kept apart here.

Tests used:
[1] = system: fibrin- and LPS-induced microglia activation; assay: cells; assay type: cell-based, rat
[2] = system: LPS-induced microglia activation; assay: Image-based assay of LPS-induced microglia activation (HTS and dose response); assay type: cell-based, rat
primary rat microglia [3] = system: primary rat microglia;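 for Fibrin % cell toxicity: share of dead cells sized under 150 µm2 at 10 µM in fibrin-stimulated microglia HTS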
[4] = system: fibrin-induced microglia activation; assay: Image-based assay of fibrin-induced microglia activation (HTS and dose response); assay type: cell-based, rat; settings: for inhibition at 10 µM: Rattus norvegicus, Microglia, read-out: Fibrin % inhibition
primary rat microglia [5] = system: primary rat microglia; remark: listed apart in the source;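 for Fibrin % cell toxicity: share of dead cells sized under 150 µm2 at 10 µM in fibrin-stimulated microglia HTS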
[6] = Rattus norvegicus, Microglia, read-out: LPS % inhibition
[7] = classification by fibrin and LPS inhibition, HTS at 10 μM
[8] = Rattus norvegicus, Microglia, primary microglia HTS, LPS stimulation, compounds at 10 μM; read-out: LPS % inhibition
[9] = primary microglia HTS, fibrin stimulation, compounds at 10 μM
[10] = Rattus norvegicus, Microglia, 48 h, read-out: LPS % inhibition
[11] = quadrant by fibrin and LPS inhibition in HTS of 1907 compounds
[12] = Rattus norvegicus, Microglia, 48 h, primary microglia HTS, LPS stimulation, activation = cell size >800 μm2; read-out: LPS % inhibition
[13] = primary microglia HTS, fibrin stimulation, activation = cell size >800 μm2
[14] = primary microglia HTS, fibrin stimulation, increased cell size (>800 μm^2) as marker of activation
[15] = classification by fibrin and LPS inhibition in HTS
[16] = Rattus norvegicus, Microglia, 48 h; read-out: LPS % inhibition
[17] = primary microglia HTS, fibrin stimulation, cell size >800 μm2 as marker of activation

Row | Compound | Quadrant (FIG. 5b) [1] | Fibrin % cell toxicity (primary rat microglia [3]; rat) [%] | inhibition at 10 µM [4] [%] | LPS % cell toxicity (primary rat microglia [5]; rat) [%] | also measured
1 | CC/C(=C(/CC)c1ccc(O)cc1)c1ccc(O)cc1 [Diethylstilbestrol] | Q4 | 1 | -26 | 0 | inhibition at 10 µM [2, 6]: 16%
2 | O=c1oc2ccccc2c(O)c1Cc1c(O)c2ccccc2oc1=O [Dicoumarol] |  | 1 |  | 0 | Quadrant (FIG. 5b) [1, 7]: Q4; inhibition at 10 µM [2, 8]: 18%; inhibition at 10 µM [4, 9]: -24%
3 | CC(CCc1ccccc1)NCC(O)c1ccc(O)c(C(N)=O)c1 (stereo not shown) [Labetalol] | Q4 | 1 | 32 | 1 | inhibition at 10 µM [2, 10]: 30%
4 | O=C(O)CC(O)(CC(=O)O)C(=O)O [Citric Acid] | Q4 | 1 | -36 | 0 | inhibition at 10 µM [2, 6]: -6%
5 | CCOC(=O)c1ccc(N)cc1 [Benzocaine] |  | 1 |  | 0 | Quadrant (FIG. 5b) ([1]; quadrant by fibrin and LPS inhibition, HTS at 10 μM): Q4; inhibition at 10 µM [2, 8]: 7%; inhibition at 10 µM [4, 9]: -24%
6 | CN1CCN(C2=Nc3cc(Cl)ccc3Nc3ccccc32)CC1 [Clozapine] | Q4 | 0 | 3 | 0 | inhibition at 10 µM [2, 6]: 9%
7 | CC(C)C(=O)Nc1ccc([N+](=O)[O-])c(C(F)(F)F)c1 [Flutamide] |  | 1 |  | 0 | Quadrant (FIG. 5b) [1, 11]: Q4; inhibition at 10 µM [2, 12]: 23%; inhibition at 10 µM [4, 13]: 15%
8 | CC[C@H]1OC(=O)[C@H](C)C(=O)[C@H](C)[C@@H](O[C@@H]2O[C@H](C)C[C@H](N(C)C)[C@H]2O)[C@](C)(OC)C[C@@H](C)C(=O)[C@H](C)[C@H]2N(CCCCn3cnc(-c4cccnc4)c3)C(=O)O[C@]12C [Telithromycin] |  | 1 |  | 0 | Quadrant (FIG. 5b) ([1]; HTS of 1907 compounds, quadrant by fibrin and LPS inhibition): Q4; inhibition at 10 µM ([2]; Rattus norvegicus, Microglia, primary microglia HTS, 10 μM, LPS-stimulated, cell size >800 μm^2 as marker of activation; read-out: LPS % inhibition): 17%; inhibition at 10 µM ([4]; primary microglia HTS, 10 μM, fibrin-stimulated, cell size >800 μm^2 as marker of activation): 0%
9 | COc1cc([C@@H]2c3cc4c(cc3[C@H](O)[C@H]3COC(=O)[C@H]23)OCO4)cc(OC)c1OC [Podofilox/Podophyllotoxin] |  |  |  |  | Quadrant (FIG. 5b) [1, 11]: Q2; LPS % inhibition ([2]; primary microglia HTS, LPS stimulation; increased cell size (>800 μm^2) as marker of activation): 107%; Fibrin % cell toxicity (primary rat microglia [3]): 8%; Fibrin % inhibition [4, 14]: 110%; LPS % cell toxicity (primary rat microglia [5]): 9%
10 | O=C(NCC(O)CO)c1c(I)c(C(=O)NCC(O)CO)c(I)c(N(CCO)C(=O)CO)c1I (stereo not shown) [Ioversol] | Q4 | 1 | -1 | 1 | inhibition at 10 µM [2, 10]: 18%
11 | O=C1CN(/N=C/c2ccc(-c3ccc([N+](=O)[O-])cc3)o2)C(O)=N1 [Dantrolene] |  | 1 |  | 0 | Quadrant (FIG. 5b) [1, 7]: Q4; inhibition at 10 µM [2, 8]: 14%; inhibition at 10 µM [4, 9]: -6%
12 | O=C([O-])[C@H](O)[C@@H](O)[C@H](O)[C@H](O)CO.[Na+] [Sodium Gluconate] |  | 1 |  | 0 | Quadrant (FIG. 5b) [1, 15]: Q4; inhibition at 10 µM [2, 16]: 11%; inhibition at 10 µM [4, 17]: 1%
13 | Nc1cc(C(Cl)=C(Cl)Cl)c(S(N)(=O)=O)cc1S(N)(=O)=O [Clorsulon] | Q4 | 0 | 0 | 0 | inhibition at 10 µM [2, 6]: 17%
14 | N[C@@H](Cc1ccc(O)c(O)c1)C(=O)O [Levodopa] |  | 1 |  | 0 | Quadrant (FIG. 5b) [1, 11]: Q4; inhibition at 10 µM [2, 12]: -5%; inhibition at 10 µM [4, 13]: 17%
15 | OC(CNCC(O)C1CCc2cc(F)ccc2O1)C1CCc2cc(F)ccc2O1 (stereo not shown) [Nebivolol] |  | 1 |  | 0 | Quadrant (FIG. 5b) [1, 11]: Q4; inhibition at 10 µM ([2]; Rattus norvegicus, Microglia, 48 h, primary microglia HTS, LPS stimulation; increased cell size (>800 μm^2) as marker of activation; read-out: LPS % inhibition): 6%; inhibition at 10 µM [4, 14]: -10%
16 | CN1CCC[C@H]1c1cccnc1 [Nicotine] | Q4 | 1 | 2 | 1 | inhibition at 10 µM [2, 10]: 21%
17 | CC(=O)[C@H]1CC[C@H]2[C@@H]3CC=C4C[C@@H](OC(=O)CCC(=O)O)CC[C@]4(C)[C@H]3CC[C@]12C [Pregnenolone Succinate] |  | 1 |  | 1 | Quadrant (FIG. 5b) [1, 15]: Q4; inhibition at 10 µM [2, 16]: 21%; inhibition at 10 µM [4, 17]: 4%
